Assay results reported in a melting point compilation (Tetko et al.; mined from patent text by program, amines drawn as free bases though some values may be those of a salt).

SMILES	melting point [°C]
CON(C(=O)c1ccoc1C)C1CCCCC1	46
CN(Cc1ccc(OC(F)(F)F)cc1)C(=O)OC[C@@]1(C)Cn2cc([N+](=O)[O-])nc2O1	123 to 124
O=C(Oc1ccc(Cl)cc1)n1c2c(c(=O)n(C3CCCCO3)c1=O)CCC2 (configuration not stated)	126
Cc1cc(C)cc(C(=O)N2CCN(C(=O)CN(CCO)C3CCN(Cc4ccccc4)CC3)C(c3ccc(Cl)c(Cl)c3)C2)c1 (racemic)	70 to 73
O=S(=O)(Cl)c1ccc2c(S(=O)(=O)Cl)cc(S(=O)(=O)Cl)cc2c1	195 to 197
COc1cccc2c1nc(C(F)F)n2-c1nc(Nc2cccnc2)nc(N2CCOCC2)n1	221 to 223
O=C(Cc1ccc(I)cc1)NC[C@H]1CCCN1	120
CC(C)c1ccc2c(c1)c(Sc1ccccc1)c(CCC(C)(C)C(=O)O)n2Cc1ccc(Cl)cc1	164 to 166
O=C1CCC(N2C(=O)c3ccc(CNC(=O)Nc4ccc(Cl)c(Cl)c4)cc3C2=O)C(=O)N1 (configuration not stated)	290 to 292
Cc1cccc2c(=O)[nH]c(N3CCC(N(C)C)CC3)cc12	217 to 218
CC1(C)Oc2ccc([N+](=O)[O-])cc2C2OC21 (configuration not stated)	91 to 93
COC(=O)N1Cc2cc(OC)ccc2C(Cc2c(Cl)cncc2Cl)=N1	184 to 186
N#Cc1ccc(Nc2nnc(Cc3ccncc3)c3ccccc23)cc1	228 to 230
CCCCCCCCCCCCCCOC(=O)c1cc(C(=O)OCCCCCCCCCCCCCC)cc([N+](=O)[O-])c1	60 to 61
CCC(=O)C1=C(O)CC(c2ccc3c(c2)CCC3)CC1=O (configuration not stated)	98
O=C(CCCCl)c1cc2c(s1)SCCNC2=O	124 to 125
CCCc1c(C(=O)C(C)C)c2ccc(CC(=O)O)cc2n1Cc1cc2c(cc1Cl)OCO2	81 to 83
CCCOC(C)c1ccc(OCc2ccccc2)cc1 (single isomer, unassigned; (+))	51 to 53
CC(CCc1cc2cccnc2n(-c2cccc(N)c2)c1=O)c1ccncc1 (configuration not stated)	83 to 91
COc1ccccc1N1CCN(CCNc2ccccc2[N+](=O)[O-])CC1	117 to 118
CCCn1nc(-c2c(-c3ccc(F)cc3)nn3ccc(OC)cc23)ccc1=O	190 to 191
CCc1oc2ccc(C(C)C(=O)O)cc2c(=O)c1C (configuration not stated)	196 to 198
COc1ccc(C(=O)c2ccc3cc(OC)ccc3c2-c2ccccc2)cc1	122 to 124
O=C(Nc1ccc(F)cc1)C12CC3CC(CC(C3)C1)C2	170 to 171
CCOC(=O)c1c(Nc2ccccc2C)n[nH]c1C	156 to 160

SMILES	melting point [°C]
O=C1NCC(c2ccccc2)SCC1N1C(=O)c2ccccc2C1=O (configuration not stated)	240 to 247
CONC(=O)Nc1ccc(-c2sc3c(c2CN(C)C(C)(C(=O)O)c2ccccc2)c(=O)n(-c2ccccc2)c(=O)n3Cc2c(F)cccc2F)cc1 (configuration not stated)	147 to 149
CNc1nc(=O)n(CCCN2CCN(C(c3ccccc3)c3ccccc3)CC2)c2ccccc12	238 to 240
O=C1C2=C(SCCO2)C(=O)N1c1ccc2cccnc2n1	200
Nc1nc2c(Cl)cc(F)c(-c3ncc(C(F)(F)F)cc3Cl)c2s1	230 to 235
Cc1cc(CSCCC(=C(N)NCC(O)c2ccccc2)[N+](=O)[O-])sc1CN(C)C (configuration not stated)	114 to 115
COc1cc(-c2nc3ccc(OCCN4CCCC4)cc3n2Cc2ccccc2C(F)(F)F)cc(OC)c1OC	143
CCOC(=O)C(C)NC(=O)N(C)N (configuration not stated)	77 to 79.5
COc1cc2c(Nc3cc(OC)c(Cl)cc3Cl)c(C#N)cnc2cc1F	219 to 221
FC(F)(F)c1cc(CO[C@@H]2CCCN(Cc3nc4ccccc4o3)[C@@H]2c2ccccc2)cc(C(F)(F)F)c1 (relative stereo)	95 to 97
CCc1nn(CCOC(N)=O)c(CC)c1Cc1cc(Cl)cc(Cl)c1	145 to 147
COc1cc2c(cc1OC)-c1c(OC)c(OC)cc3ccnc(c13)C2=O	229 to 230
CCNC(=O)n1nc(Oc2c(Cl)cc(C(F)(F)F)cc2Cl)c(Cl)c1C	85 to 86
CC(C)C(=O)C[C@@H](O)C(=O)O	67 to 68
CN1CCN(C2=Nc3ccccc3N3CCCc4cccc2c43)CC1	129 to 132
OCc1c(Cl)cc(Cl)cc1C(O)(Cn1ccnc1)c1ccc(Cl)cc1Cl (configuration not stated)	208 to 211
O=C1N(Cc2ccc(=O)[nH]c2)c2ccccc2C12COc1cc3c(cc12)OCO3 (configuration not stated)	247 to 250
CCc1ccc(NC(=O)c2sccc2S(=O)(=O)Nc2onc(C)c2Br)cc1	187 to 190
CCOC(=O)C1=C(C)NC(C(OCC)OCC)=C(C(=O)OCC)C1c1ccccc1Cl (configuration not stated)	75 to 77
NS(=O)(=O)c1ccc(-n2nc(C(F)(F)F)cc2OS(=O)(=O)C(F)(F)F)cc1	114 to 115
CC(C)c1ccc(C(=O)O)c(C2=NC(=O)C(C)(C(C)C)N2)n1 (configuration not stated)	131 to 134
COC(=NC(=O)c1ccc(F)cc1)N1Cc2ccccc2-c2ccccc2C1	136 to 138
C=CC(c1ccccc1)c1cc(C)c2c(c1O)C(=O)CC2 (configuration not stated)	131 to 132
Cc1c(N2CCC(N)C(C)(C)C2)c(F)cc2c(=O)c(C(=O)O)cn(C3CC3)c12 (configuration not stated)	195 to 198
COC(=O)c1cc2cc(OC)ccc2cc1/N=C/N(C)C	160 to 162

SMILES	melting point [°C]
CSC(C(=O)O)c1ccco1 (configuration not stated)	62 to 62.5
COc1cccc(Nc2cc(Nc3ccc(F)c(Cl)c3)ncn2)c1	214 to 216
CS(=O)(=O)Nc1c(-c2cc(Cl)ccc2O)c2cc(C(F)(F)F)ccc2[nH]c1=O	263 to 265
Cc1ccc(-c2coc3cc(O)cc(O)c3c2=O)cc1	215 to 217
CCC1OC(=O)CC(O)C(C)C(OC2OC(C)CC(N(C)C)C2O)C(CC=O)CC(C)C(=O)C=CC2(C)OC2C1C (configuration not stated)	128 to 130
CCOC(=O)CN(Cc1cc(-n2cc(C)nc2C)ccc1[N+](=O)[O-])C(=O)C(F)(F)F	172 to 176
CC1(C)CC(=O)c2ccc(Cl)cc2O1	63 to 66
COCn1c(=O)n(-c2ccc3c(c2)OCO3)c2ncccc21	152 to 153
CC(CN1C(C)CCC1C)N1c2ccccc2Sc2ccc(C#N)cc21 (mixture of isomers)	105
CCOC(=O)CNc1ccc(NS(C)(=O)=O)cc1	135 to 138
CCOc1cc2ncc(C#N)c(Nc3ccc(OCc4ccccc4)c(Cl)c3)c2cc1NC(=O)CC(CN(C)C)N(C)C (configuration not stated)	102 to 104
O=C(c1cc2cc(OCc3ccccc3)ccc2[nH]1)C1(c2ccc(Cl)cc2)CCCC1	134 to 136
CN1Cc2c(-c3noc(CCl)n3)ncn2-c2ccc(Cl)cc2C1=O	229
OCc1c(Cl)cc(Cl)c2ccc(Cl)cc12	107 to 112
Cc1[nH]cnc1-c1cc(C(C)(C)C)c(O)c(C(C)(C)C)c1	207 to 209
COc1ccc2c(c1)CN(C(=O)CN1CCOCC1)N=C2Cc1c(Cl)cncc1Cl	180 to 182
NC(=O)N1C(=O)C(C(=O)c2cccs2)c2cc(F)c(Cl)cc21 (configuration not stated)	220 to 221
COc1ccccc1CC(=O)NCc1cccs1	84
NS(=O)(=O)c1cc2[nH]c(C(F)F)nc2cc1Cl	233 to 235
CCOC(=O)Cc1ccc(OCCN2CCN(c3cc(Cl)nnc3Cl)CC2)cc1	128 to 130
CCCOc1cc2c(cc1C1CCCc3oc(/C=C/C(=O)O)cc31)C(C)(C)CCC2(C)C (configuration not stated)	195 to 196
CC(c1ccc(-c2ccccc2Cl)cc1)S(=O)CC(=O)O (configuration not stated)	144 to 147
Clc1ccccc1Oc1ncc2c(-c3cccs3)n[nH]c2n1	221 to 223
COc1cc(OC)cc(S(=O)(=O)c2ccc(N)cc2)c1	128 to 130
CCCOCCOc1ccc(COc2ccc3c(c2)C=C(C(=O)O)CCS3(=O)=O)cc1	244 to 250

SMILES	melting point [°C]
O=C(O)CN(CC(=O)O)Cc1cc(S(=O)(=O)c2ccc(OCc3ccccc3)cc2)cc(CN(CC(=O)O)CC(=O)O)c1O	138 to 143
O=C(O)CCc1cn(Cc2cccc(C(=O)NCc3ccc(C(F)(F)F)cc3)c2)nc1-c1ccccc1	165 to 166
COc1c(C)c(N2CCN(c3ccc(F)cc3)CC2)c(C)c2c1OC(C)(C)C2	137 to 139
CCOC(=O)CC(C)Nc1ccc(OC)c(OC)c1 (configuration not stated)	59 to 60
N#CCCCCC(=O)c1ccc(Br)cc1	47 to 48
Cc1ccc(F)c(-c2ccc(S(=O)(=O)N3c4ccccc4CC3C(=O)NCCOc3ccc(CC(=O)O)cc3)cc2)c1 (configuration not stated)	82 to 85
Cc1cc(=O)n(-c2cc(C(=O)O)c(Cl)cc2F)c(=O)n1C(F)F	247 to 248
COCC1CC(=O)c2nc(C)c(C)n2C1 (configuration not stated)	103 to 104
Cc1cccc(CN2CCN(C(c3ccc(Cl)cc3)c3cccc(OCC(=O)O)c3)CC2)c1 (configuration not stated)	114 to 120
CCC(CC)O[C@@H]1C=C(C(=O)O)C[C@H](CC2CO2)[C@H]1NC(C)=O (some centres not stated)	115 to 116
COc1ccc(C(O)CCN2CC=C(c3ccc(Cl)cc3)CC2)c(OC)c1 (configuration not stated)	112 to 114
O=C(Nc1ccc(SC(F)(F)F)cc1)c1cc(Cl)c2ccccc2c1O	172 to 175
CC(C)(C)c1cc(N2C(=O)c3ccccc3C2=O)cc(C(C)(C)C)c1O	196 to 201
Fc1cc(F)c(-c2c(Cl)ncn2-c2ccc(Cl)cc2)c(F)c1	102 to 104
CS(=O)(=O)c1nc(N)c2ncn(C3CCCCC3)c2n1	272 to 274
CCOC(=O)c1cc2c3cc4ccccc4cc3ccc2n1C	141 to 144
CCCOC1C=CC(=O)N1S(=O)(=O)c1ccccc1 (configuration not stated)	56 to 58
CN(C)c1nc2cc(Cl)c(Cl)cc2n1C1CC(CO)C(O)C1O (configuration not stated)	190 to 193
CC1=C(C(=O)OCc2ccccc2)C(c2cccc(Cl)c2Cl)C(C(=O)OCc2ccccc2)=C(C)N1	131 to 132
COC(=O)C(=C1SC=CS1)S(=O)(=O)C(C)C	141 to 142
CCOC(=O)C(=O)c1cn(CCN2CCOCC2)c2ccccc12	99 to 100
O=c1[nH]c2ccc(F)cc2s1	188 to 189
